Results: US20260345591A1, “COMBINATIONS OF ESTROGEN RECEPTOR DEGRADERS AND CDK4 INHIBITORS” (PFIZER INC., priority 2023, published 2026)
“Also recorded” adds a separate entry of the source.

Tests used:
[1] = test system: MCF7 xenograft model; assay: Tumor growth inhibition (anti-tumor efficacy) in MCF7 xenograft model, HR+/HER2- breast cancer; type: in vivo, Mus musculus (NSG mice); conditions: for TGI / TGI, statistical significance (ANCOVA): Day 41
Protocol: To generate MCF7 PO donors, cells were obtained from ATCC and cultured in RPM11640 supplemented with 10% FBS. All cells were maintained in a humidified incubator at 37 °C with 5% CO2.
To establish the MCF7 PO donor mice, cells (5×10^6/mouse with 50% Cultrex® Basement Membrane Matrix) were subcutaneously (in 0.2 mL total volume) implanted in female NSG mice supplemented with 17β-ESTRADIOL water ad libidum (8.5 μg/mL concentration). The 17β-ESTRADIOL water supplement was administered about 7 days before the implant and all throughout the duration of the study.
(§1) To establish the MCF7 P1, when tumor volume of MCF7 PO donor mice reached a range of 700 to 800 mm3, tumors were collected and cut into fragments. The fragments were subsequently transplanted into secondary recipient mice for TGI study expansion. Secondary recipient mice were than randomly assigned to groups (n=10) when tumor volumes reached a range between 143 mm3 and 209 mm3 and subsequently treated with: 1) vehicle (0.5% methylcellulose A4M/water), PO; 2) fulvestrant at 10 mg/kg twice in the first week, then weekly afterwards, SC; 3) Compound A at 30 mg/kg QD, PO; 4) Compound B at 30 mg/kg BID, PO; 5) Compound B at 60 mg/kg BID, PO; 6) Compound B at 30 mg/kg plus fulvestrant; 7) Compound B at 60 mg/kg plus fulvestrant; 8) Compound B at 30 mg/kg plus Compound A; 9) Compound B at 60 mg/kg plus […]; 10) palbociclib at 10 mg/kg BID, PO plus Compound A. All mice received treatment continuously until Day 42. TGI was assessed on Day 41 post first dose.
For the efficacy measurements, tumor volume and body weights were collected twice a week. Tumor volume was calculated using the [(Length×Width×Width)/2)] formula. TGI was calculated as 100*(1−ΔT/ΔC). The ΔC (ΔT) was obtained by subtracting the mean tumor burden in the vehicle (treated) group on the first day of treatment (Day 0) from the mean tumor burden in vehicle (treated) group on the assessment day. Statistical analysis was performed using TGI Analyzer ANCOVA. BLISS statistical analysis (statistical modeling of single drug response from drug combination data) was used to measure synergy effect, a combination is synergistic if the tumor volume is less than the BLISS with pvalue of <0.05.
Compound B was tested at two CRD dose levels (30 mg/kg, BID and 60 mg/kg, BID) as a single agent or in combination with Compound A at 30 mg/kg QD or fulvestrant at CRD (10 mg/kg). Palbociclib at CRD (10 mg/kg, BID) in combination with Compound A served as a positive comparator.

[2] = Interconversion to epimer; type: physicochemical
[3] = test system: HR+HER2− BC Xenograft Model MCF7; assay: Tumor regrowth after end of treatment in MCF7 xenograft model; type: in vivo, Mus musculus (NSG mice); conditions: fulvestrant 10 mg/kg alone; Compound A 30 mg/kg QD alone; palbociclib 10 mg/kg BID + Compound A 30 mg/kg QD
Protocol: as §1
For the efficacy measurements, tumor volume and body weights were collected twice a week. Tumor volume was calculated using the [(Length×Width×Width)/2)] formula. TGI was calculated as 100*(1−ΔT/ΔC). […]
Tumor growth delay was monitored after treatment was discontinued on Day 43 and statistical analysis was performed on Day 26 post last dose (Day 69 post study start).

[4] = Biopharmaceutics Classification System (solubility/permeability); type: physicochemical
[5] = biological target: T1, estrogen receptor (Homo sapiens, UniProt P03372); assay: Degradation of the estrogen receptor; type: cell-based; conditions: preclinical data
T1 construct: cereblon-recruiting PROTAC degradation
T1 sequence (P03372 1-595): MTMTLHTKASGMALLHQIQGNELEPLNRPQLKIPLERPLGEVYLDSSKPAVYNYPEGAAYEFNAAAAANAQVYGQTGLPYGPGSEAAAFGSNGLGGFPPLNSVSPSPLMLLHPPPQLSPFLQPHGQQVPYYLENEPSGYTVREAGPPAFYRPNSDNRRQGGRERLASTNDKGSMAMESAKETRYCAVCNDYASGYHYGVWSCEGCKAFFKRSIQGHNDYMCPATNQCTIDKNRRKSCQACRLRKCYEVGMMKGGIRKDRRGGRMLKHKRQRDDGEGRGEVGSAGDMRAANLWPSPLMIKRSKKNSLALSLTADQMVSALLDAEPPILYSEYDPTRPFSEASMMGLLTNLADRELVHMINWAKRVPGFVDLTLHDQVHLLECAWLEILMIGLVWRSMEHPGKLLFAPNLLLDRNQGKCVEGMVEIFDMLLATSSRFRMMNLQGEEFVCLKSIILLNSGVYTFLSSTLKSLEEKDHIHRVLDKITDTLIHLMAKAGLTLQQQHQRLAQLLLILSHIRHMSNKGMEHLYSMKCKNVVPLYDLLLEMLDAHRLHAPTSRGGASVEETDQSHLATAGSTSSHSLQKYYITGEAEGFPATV

[6] = Preclinical exposure of epimer Compound C compared to Compound A; type: in vivo; conditions: preclinical data
[7] = fulvestrant 10 mg/kg alone, Compound A 30 mg/kg QD alone, palbociclib 10 mg/kg BID + Compound A 30 mg/kg QD

O=C1CC[C@H](N2Cc3cc(N4CCN(CC5CCN(c6ccc([C@@H]7c8ccc(O)cc8CC[C@@H]7c7ccccc7)cc6)CC5)CC4)ccc3C2=O)C(=O)N1 [Compound A, (S)-3-(5-(4-((1-(4-((1R,2S)-6-hydroxy-2-phenyl-1,2,3,4-tetrahydronaphthalen-1-yl)phenyl)piperidin-4-yl)methyl)piperazin-1-yl)-1-oxoisoindolin-2-yl)piperidine-2,6-dione]
TGI ([1]; Compound A 30 mg/kg PO QD × 42 D): 119% | TGI, statistical significance (ANCOVA) ([1]; Compound A 30 mg/kg QD, alone or with palbociclib 10 mg/kg BID): *α+βγ | antitumor efficacy [1, 7]: significant tumor regression; also recorded: no significant differences in the TGI | interconversion to epimer Compound C [2]: can interconvert to its epimer | Tumor regrowth, ANCOVA Analysis (Day 26 post end of treatment) [3]: β (indicates p < 0.05 versus Compound B single agent) | Biopharmaceutics Classification System class [4]: Class IV compound (low solubility/low permeability)

CC(C)n1c(C(C)(C)O)nc2c(F)cc(-c3nc(N[C@@H]4CCOC[C@H]4O)ncc3Cl)cc21 [Compound B, 1,5-anhydro-3-({5-chloro-4-[4-fluoro-2-(2-hydroxypropan-2-yl)-1-(propan-2-yl)-1H-benzimidazol-6-yl]pyrimidin-2-yl}amino)-2,3-dideoxy-D-threo-pentitol]
TGI ([1]; Compound B 30 mg/kg PO BID × 42 D): 62% | TGI ([1]; Compound B 60 mg/kg PO BID × 42 D): 81% | TGI, statistical significance (ANCOVA) ([1]; Compound B at 30 mg/kg BID, alone or + fulvestrant 10 mg/kg): *α ^ | TGI, statistical significance (ANCOVA) ([1]; Compound B at 60 mg/kg BID, alone, + fulvestrant 10 mg/kg or + Compound A 30 mg/kg QD): *+α | antitumor efficacy ([1]; Compound B at 30 and 60 mg/kg BID, alone or + Compound A 30 mg/kg QD): significant tumor growth inhibition; also recorded: significant efficacy

C[C@]12CC[C@@H]3c4ccc(O)cc4C[C@@H](CCCCCCCCC[S+]([O-])CCCC(F)(F)C(F)(F)F)[C@H]3[C@@H]1CC[C@@H]2O (stereo partly drawn) [Fulvestrant, fulvestrant, reference compound]
TGI ([1]; fulvestrant 10 mg/kg SC, D 1, D 3, then 1x/week × 5 W): −7% | antitumor efficacy [1, 7]: no tumor growth inhibition

O=C1CC[C@@H](N2Cc3cc(N4CCN(CC5CCN(c6ccc([C@@H]7c8ccc(O)cc8CC[C@@H]7c7ccccc7)cc6)CC5)CC4)ccc3C2=O)C(=O)N1 [Compound C]
degradation of the estrogen receptor [5]: does not degrade the estrogen receptor | exposure of Compound C compared to Compound A [6]: < 26%
